{"source": "ChEMBL document CHEMBL4680201", "about": "“Design, synthesis, and pharmacological evaluation of 4- or 6-phenyl-pyrimidine derivatives as novel and selective Janus kinase 3 inhibitors” (Eur J Med Chem, 2020)", "key": {"[1]": {"assay": "Plasma clearance in ICR mouse at 10 mg/kg, iv administered as single dose by LC-MS/MS analysis", "assay_type": "ADME, organism-based", "settings": "in vivo"}, "[2]": {"biological_target": "T1, Tyrosine-protein kinase JAK3 (Mus musculus) (UniProt Q62137)", "T1 sequence (whole entry)": "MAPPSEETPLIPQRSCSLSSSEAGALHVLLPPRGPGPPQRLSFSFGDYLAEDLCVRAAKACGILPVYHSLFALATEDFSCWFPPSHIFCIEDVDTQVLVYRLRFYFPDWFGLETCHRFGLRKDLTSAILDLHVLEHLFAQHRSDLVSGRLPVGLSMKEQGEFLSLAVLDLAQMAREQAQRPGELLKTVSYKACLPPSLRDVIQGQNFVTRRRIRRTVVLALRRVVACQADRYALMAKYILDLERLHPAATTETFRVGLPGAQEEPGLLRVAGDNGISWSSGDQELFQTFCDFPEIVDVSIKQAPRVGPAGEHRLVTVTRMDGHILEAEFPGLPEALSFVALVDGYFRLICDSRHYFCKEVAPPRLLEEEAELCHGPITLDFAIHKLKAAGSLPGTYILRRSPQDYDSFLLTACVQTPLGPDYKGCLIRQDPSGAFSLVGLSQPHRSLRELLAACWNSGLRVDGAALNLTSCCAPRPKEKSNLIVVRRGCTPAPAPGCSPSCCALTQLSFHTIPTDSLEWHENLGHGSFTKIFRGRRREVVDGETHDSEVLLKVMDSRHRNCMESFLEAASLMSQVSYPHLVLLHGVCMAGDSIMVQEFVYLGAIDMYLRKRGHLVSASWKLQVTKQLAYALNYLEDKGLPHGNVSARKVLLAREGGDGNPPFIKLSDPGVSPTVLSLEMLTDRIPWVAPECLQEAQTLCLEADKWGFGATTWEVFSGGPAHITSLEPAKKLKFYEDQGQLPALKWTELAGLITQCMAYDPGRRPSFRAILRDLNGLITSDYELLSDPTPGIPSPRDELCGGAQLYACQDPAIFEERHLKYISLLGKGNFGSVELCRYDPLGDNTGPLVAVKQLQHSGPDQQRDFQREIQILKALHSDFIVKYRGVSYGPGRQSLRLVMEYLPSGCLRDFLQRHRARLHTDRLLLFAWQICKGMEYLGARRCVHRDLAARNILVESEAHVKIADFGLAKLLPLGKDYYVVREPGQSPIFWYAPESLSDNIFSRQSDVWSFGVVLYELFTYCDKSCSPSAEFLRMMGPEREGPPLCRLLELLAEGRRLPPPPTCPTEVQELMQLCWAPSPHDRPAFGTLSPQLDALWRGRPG", "assay": "Inhibition of JAK3 in anti-CD3/-CD28 coated mouse T cells assessed as reduction in IL15-induced STAT5 phosphorylation at 10 uM preincubated for 1 hr followed by […] and measured after 30 mins by Western blot analysis", "settings": "T cell"}, "[3]": {"biological_target": "T2, BMX (Cytoplasmic tyrosine-protein kinase BMX) (Homo sapiens, UniProt P51813)", "T2 sequence (P51813 whole entry)": "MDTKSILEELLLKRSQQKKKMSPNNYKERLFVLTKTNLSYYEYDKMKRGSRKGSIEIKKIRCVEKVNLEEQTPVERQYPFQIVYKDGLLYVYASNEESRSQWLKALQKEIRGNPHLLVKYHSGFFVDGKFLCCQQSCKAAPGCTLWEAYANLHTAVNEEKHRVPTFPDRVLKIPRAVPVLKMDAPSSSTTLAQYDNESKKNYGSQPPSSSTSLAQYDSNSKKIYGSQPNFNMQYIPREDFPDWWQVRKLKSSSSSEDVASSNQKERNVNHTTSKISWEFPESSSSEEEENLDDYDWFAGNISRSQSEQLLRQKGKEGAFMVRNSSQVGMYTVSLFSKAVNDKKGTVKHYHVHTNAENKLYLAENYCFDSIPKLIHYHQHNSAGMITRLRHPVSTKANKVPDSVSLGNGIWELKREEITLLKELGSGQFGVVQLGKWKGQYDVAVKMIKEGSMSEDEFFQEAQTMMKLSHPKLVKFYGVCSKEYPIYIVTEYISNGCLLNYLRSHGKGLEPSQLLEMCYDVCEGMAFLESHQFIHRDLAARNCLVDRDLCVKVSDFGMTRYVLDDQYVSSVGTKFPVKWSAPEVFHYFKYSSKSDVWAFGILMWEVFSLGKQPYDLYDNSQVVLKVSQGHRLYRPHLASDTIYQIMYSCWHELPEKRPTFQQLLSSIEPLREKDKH", "assay": "Inhibition of recombinant human His-tagged full length BMX expressed in baculovirus expression system at 100 nM using Tyr 01 as substrate incubated for 60 mins by Z'-Lyte assay relative to control", "settings": "probe Tyr 01"}, "[4]": {"assay": "Cytotoxicity against resting mouse T cells assessed as reduction in cell viability at 10 uM measured after 72 hrs by MTS assay", "assay_type": "cell-based"}, "[5]": {"biological_target": "T1, Tyrosine-protein kinase JAK3 (Mus musculus)", "assay": "Inhibition of JAK3 in anti-CD3/-CD28 coated mouse T cells assessed as reduction in IL15-induced STAT5 phosphorylation preincubated for 1 hr followed by […] and measured after 30 mins by Western blot analysis", "settings": "T cell"}, "[6]": {"biological_target": "ERBB2 (Receptor tyrosine-protein kinase erbB-2) (Homo sapiens, UniProt P04626)", "sequence (P04626 whole entry, the tested form may be a part)": "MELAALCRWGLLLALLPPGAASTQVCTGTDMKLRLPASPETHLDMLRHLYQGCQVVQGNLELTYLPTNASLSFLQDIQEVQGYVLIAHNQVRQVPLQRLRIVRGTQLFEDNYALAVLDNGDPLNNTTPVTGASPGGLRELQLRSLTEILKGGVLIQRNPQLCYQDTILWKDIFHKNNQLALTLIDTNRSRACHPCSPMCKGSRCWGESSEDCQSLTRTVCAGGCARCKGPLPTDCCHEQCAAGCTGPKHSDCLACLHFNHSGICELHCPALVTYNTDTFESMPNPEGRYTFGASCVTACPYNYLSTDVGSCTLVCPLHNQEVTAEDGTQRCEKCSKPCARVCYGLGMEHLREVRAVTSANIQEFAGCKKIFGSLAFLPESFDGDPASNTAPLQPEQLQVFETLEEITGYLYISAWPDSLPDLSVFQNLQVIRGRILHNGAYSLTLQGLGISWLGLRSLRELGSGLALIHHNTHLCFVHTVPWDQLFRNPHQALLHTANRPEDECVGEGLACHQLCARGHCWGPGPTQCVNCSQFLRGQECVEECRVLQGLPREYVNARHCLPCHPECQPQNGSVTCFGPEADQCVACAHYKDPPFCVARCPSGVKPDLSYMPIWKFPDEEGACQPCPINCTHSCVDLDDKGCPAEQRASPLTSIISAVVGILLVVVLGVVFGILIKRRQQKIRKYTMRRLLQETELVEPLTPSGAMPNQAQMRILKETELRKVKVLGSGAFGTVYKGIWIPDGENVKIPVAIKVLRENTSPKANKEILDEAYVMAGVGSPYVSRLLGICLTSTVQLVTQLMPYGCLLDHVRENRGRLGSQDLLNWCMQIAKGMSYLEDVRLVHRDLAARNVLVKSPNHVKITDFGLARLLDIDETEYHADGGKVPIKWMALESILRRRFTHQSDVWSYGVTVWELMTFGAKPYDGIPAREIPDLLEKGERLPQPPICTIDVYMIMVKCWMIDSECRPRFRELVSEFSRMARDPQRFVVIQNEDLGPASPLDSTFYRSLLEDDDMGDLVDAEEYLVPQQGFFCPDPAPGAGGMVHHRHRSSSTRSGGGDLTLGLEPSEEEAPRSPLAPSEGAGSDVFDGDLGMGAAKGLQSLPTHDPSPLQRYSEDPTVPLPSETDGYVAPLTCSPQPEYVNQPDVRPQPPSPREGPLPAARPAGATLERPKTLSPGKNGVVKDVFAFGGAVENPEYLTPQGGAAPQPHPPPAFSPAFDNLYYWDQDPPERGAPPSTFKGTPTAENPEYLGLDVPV", "assay": "Inhibition of His-tagged human recombinant ERBB2 (676 to 1255 residues) expressed in baculovirus expression system at 100 nM using Tyr 06 as substrate preincubated for 1 hr in presence of ATP by Z'-LYTE assay relative to control", "settings": "probe Tyr 06"}}, "note": "Activity calls are given as the source filed them. No cut-off for these calls is given here.", "data": [{"smiles": "C=CC(=O)Nc1ccc(-c2ccnc(Nc3ccc(N4CCOCC4)cc3)n2)cc1", "values": [{"measurement": "CLz/F", "setting": "[1]", "result": 136, "unit": "mL/min/kg"}, {"measurement": "inhibition", "setting": "[2]", "result": "Active"}, {"measurement": "inhibition at 1 h, 0.1 µM", "setting": "[3]", "result": 3.7, "unit": "%"}, {"measurement": "Activity", "setting": "[4]", "result": "Non-Toxic"}, {"measurement": "inhibition", "setting": "[5]", "result": "Dose-dependent effect"}, {"measurement": "inhibition at 1 h, 0.1 µM", "setting": "[6]", "result": 19.2, "unit": "%"}]}]}
